Data reported in patent publication US20200253211A1, “PHOTODYNAMIC INHIBITION OF MICROBIAL PATHOGENS IN PLANTS” (SUNCOR ENERGY INC, priority 2017, published 2020).

Legend:
Sclerotinia homoeocarpa [1] = assay: Radial growth of dollar spot fungus after treatment of plugs in PBS (24 well plates), dark vs light; type: cell-based; details: for inhibition at 500 µM / inhibition at 1500 µM: Clarireedia homoeocarpa
Method: In this example, control of dollar spot fungus (Sclerotinia homoeocarpa) with chlorins combined with a chelating agent was assessed. Treatments were prepared in Phosphate Buffered Saline (PBS) in 24 well plates (in duplicates for light vs. dark incubation) at desired concentrations. Then, a 5 mm diameter plug of a Sclerotinia homoeocarpa isolate (3 isolates total tested) was inoculated into the PBS and incubated at 21° C. in the dark for 2 hours. After 2 hours, one of the 24 well plates (with isolates in triplicate) is left in the dark and one 24 well plate is placed under illumination for 1 hour (all at 21° C.). Following illumination, fungal plugs are removed from PBS, blotted dry on sterile filter paper and transferred to non-amended Potato Dextrose Agar (PDA). Radial growth of the fungus is monitored daily until the growth of S. homoeocarpa reaches the edge of the Petri-dish. Illumination is provided by LED lights emitting about 1000 μmol/m^2/s photosynthetically active radiation (PAR). In this example, control of dollar spot fungus (Sclerotinia homoeocarpa) with Zinc Protoporphyrin IX (Zn-PPIX) combined with EDTA was assessed. Treatments were prepared in Phosphate Buffered Saline (PBS) in 24 well plates (in duplicates for light vs. dark incubation) at desired concentrations. Then, a 5 mm diameter plug of a Sclerotinia homoeocarpa isolate (3 isolates total tested) was inoculated into the PBS and incubated at 21° C. in the dark for 2 hours. After 2 hours, one of the 24 well plates (with isolates in triplicate) is left in the dark and one 24 well plate is placed under illumination for 1 hour (all at 21° C.). Following illumination, fungal plugs are removed from PBS, blotted dry on sterile filter paper and transferred to non-amended Potato Dextrose Agar (PDA). Radial growth of the fungus is monitored daily until the growth of S. homoeocarpa reaches the edge of the Petri-dish. Illumination is provided by LED lights emitting about 1000 μmol/m^2/s photosynthetically active radiation (PAR). In this example, control of dollar spot fungus (Sclerotinia homoeocarpa) with bacteriochlorin combined with EDTA was assessed. Treatments were prepared in Phosphate Buffered Saline (PBS) in 24 well plates (in duplicates for light vs. dark incubation) at desired concentrations. Then, a 5 mm diameter plug of a Sclerotinia homoeocarpa isolate (3 isolates total tested) was inoculated into the PBS and incubated at 21° C. in the dark for 2 hours. After 2 hours, one of the 24 well plates (with isolates in triplicate) is left in the dark and one 24 well plate is placed under illumination for 1 hour (all at 21° C.). Following illumination, fungal plugs are removed from PBS, blotted dry on sterile filter paper and transferred to non-amended Potato Dextrose Agar (PDA). Radial growth of the fungus is monitored daily until the growth of S. homoeocarpa reaches the edge of the Petri-dish. Illumination is provided by LED lights emitting about 1000 μmol/m^2/s photosynthetically active radiation (PAR). In this example, control of dollar spot fungus (Sclerotinia homoeocarpa) with Aluminum chlorin e6 combined with EDTA was assessed. Treatments were prepared in Phosphate Buffered Saline (PBS) in 24 well plates (in duplicates for light vs. dark incubation) at desired concentrations. Then, a 5 mm diameter plug of a Sclerotinia homoeocarpa isolate (3 isolates total tested) was inoculated into the PBS and incubated at 21° C. in the dark for 2 hours. After 2 hours, one of the 24 well plates (with isolates in triplicate) is left in the dark and one 24 well plate is placed under illumination for 1 hour (all at 21° C.). Following illumination, fungal plugs are removed from PBS, blotted dry on sterile filter paper and transferred to non-amended Potato Dextrose Agar (PDA). Radial growth of the fungus is monitored daily until the growth of S. homoeocarpa reaches the edge of the Petri-dish. Illumination is provided by LED lights emitting about 1000 μmol/m^2/s photosynthetically active radiation (PAR). […]

Sclerotinia homoeocarpa [2] = assay: Radial growth of dollar spot fungus on amended Potato Dextrose Agar, dark vs light; type: cell-based
[3] = Table 16B, light, Chlorin Rate 5 μM
[4] = Table 16B, light, Chlorin Rate 10 μM
[5] = Table 16B, light, Chlorin Rate 31 μM

Compound | % Inhibition (Sclerotinia homoeocarpa [2]; Table 16A, dark, rate 5 μM) [%] | Mean Radial Growth (Sclerotinia homoeocarpa [2]; Table 16A, dark, rate 5 μM) [mm] | % Inhibition (Sclerotinia homoeocarpa [2]; Table 16A, dark, rate 10 μM) [%] | Mean Radial Growth (Sclerotinia homoeocarpa [2]; Table 16A, dark, rate 10 μM) [mm] | % Inhibition (Sclerotinia homoeocarpa [2]; Table 16A, dark, rate 31 μM) [%] | Mean Radial Growth (Sclerotinia homoeocarpa [2]; Table 16A, dark, rate 31 μM) [mm] | % Inhibition (Sclerotinia homoeocarpa [2]; [3]) [%] | Mean Radial Growth (Sclerotinia homoeocarpa [2]; [3]) [mm] | % Inhibition (Sclerotinia homoeocarpa [2]; [4]) [%] | Mean Radial Growth (Sclerotinia homoeocarpa [2]; [4]) [mm] | % Inhibition (Sclerotinia homoeocarpa [2]; [5]) [%] | Mean Radial Growth (Sclerotinia homoeocarpa [2]; [5]) [mm] | also measured
O=C(OC[C@H]1O[C@@H](OC(=O)c2cc(O)c(O)c(OC(=O)c3cc(O)c(O)c(O)c3)c2)[C@H](OC(=O)c2cc(O)c(O)c(OC(=O)c3cc(O)c(O)c(O)c3)c2)[C@@H](OC(=O)c2cc(O)c(O)c(OC(=O)c3cc(O)c(O)c(O)c3)c2)[C@@H]1OC(=O)c1cc(O)c(O)c(OC(=O)c2cc(O)c(O)c(O)c2)c1)c1cc(O)c(O)c(OC(=O)c2cc(O)c(O)c(O)c2)c1 [Tannic acid] | – | – | – | – | – | – | – | – | – | – | – | – | inhibition at 500 µM (Sclerotinia homoeocarpa [1]; Table 25A, dark, rate 500 μM): -6.25%; inhibition at 1500 µM (Sclerotinia homoeocarpa [1]; Table 25A, dark, rate 1500 μM): 7.29%; inhibition at 500 µM (Sclerotinia homoeocarpa [1]; Table 25B, light, rate 500 μM): -9.69%; inhibition at 1500 µM (Sclerotinia homoeocarpa [1]; Table 25B, light, rate 1500 μM): 16.3%; Mean Radial Growth (Sclerotinia homoeocarpa [1]; Table 25A, dark, rate 500 μM): 11.33 mm; Mean Radial Growth (Sclerotinia homoeocarpa [1]; Table 25A, dark, rate 1500 μM): 9.89 mm; Mean Radial Growth (Sclerotinia homoeocarpa [1]; Table 25B, light, rate 500 μM): 11.94 mm; Mean Radial Growth (Sclerotinia homoeocarpa [1]; Table 25B, light, rate 1500 μM): 9.11 mm
C=CC1=C(C)c2cc3[n-]c(cc4[n-]c(cc5nc(cc1n2)C(C)=C5C=C)c(C)c4CCC(=O)O)c(CCC(=O)O)c3C.[Zn+2] [Zn Protoporphyrin IX (PPIX), Zinc Protoporphyrin IX] | – | – | – | – | – | – | – | – | – | – | – | – | % Inhibition (Sclerotinia homoeocarpa [1]; Table 19A, light, rate 10 μM): 7.50%; Mean Radial Growth (Sclerotinia homoeocarpa [1]; Table 19A, light, rate 10 μM): 10.28 mm
C=Cc1c(C)c2cc3nc(c(CC(=O)O)c4[n-]c(cc5nc(cc1[n-]2)C(C)=C5CC)c(C)c4C(=O)O)C(CCC(=O)O)C3C.[Zn+2] (stereo not shown) [ZnCe6] | 2.47 | 13.2 | 7.41 | 12.5 | 23.46 | 10.3 | 10.4 | 11.5 | 21.4 | 10.1 | 41.6 | 7.5 | –
C[n+]1ccc(-c2c3nc(c(-c4cc[n+](C)cc4)c4ccc([nH]4)c(-c4cc[n+](C)cc4)c4nc(c(-c5cc[n+](C)cc5)c5ccc2[nH]5)C=C4)C=C3)cc1.Cc1ccc(S(=O)(=O)[O-])cc1.Cc1ccc(S(=O)(=O)[O-])cc1.Cc1ccc(S(=O)(=O)[O-])cc1.Cc1ccc(S(=O)(=O)[O-])cc1 [meso-Tetra (N-methyl-4-pyridyl) porphine tetra tosylate] | – | – | – | – | – | – | – | – | – | – | – | – | % Inhibition (Sclerotinia homoeocarpa [1]; Table 31A, dark, rate 0.1 μM): 4.17%; Mean Radial Growth (Sclerotinia homoeocarpa [1]; Table 31A, dark, rate 0.1 μM): 14.06 mm; % Inhibition (Sclerotinia homoeocarpa [1]; Table 31B, light, rate 0.1 μM): 34.63%; Mean Radial Growth (Sclerotinia homoeocarpa [1]; Table 31B, light, rate 0.1 μM): 8.39 mm
Aluminum chlorin e6 [AlCe6] | 1.85 | 13.8 | 3.70 | 13.0 | 3.09 | 13.1 | 11.0 | 11.4 | 41.6 | 7.5 | 100.0 | 0.0 | % Inhibition (Sclerotinia homoeocarpa [1]; Table 21A, dark, rate 1 μM): −4%; Mean Radial Growth (Sclerotinia homoeocarpa [1]; Table 21A, dark, rate 1 μM): 13 mm; % Inhibition (Sclerotinia homoeocarpa [1]; Table 21A, dark, rate 10 μM): −5.33%; Mean Radial Growth (Sclerotinia homoeocarpa [1]; Table 21A, dark, rate 10 μM): 13.17 mm; % Inhibition (Sclerotinia homoeocarpa [1]; Table 21B, light, rate 1 μM): −2.18%; Mean Radial Growth (Sclerotinia homoeocarpa [1]; Table 21B, light, rate 1 μM): 13 mm; % Inhibition (Sclerotinia homoeocarpa [1]; Table 21B, light, rate 10 μM): 62.45%; Mean Radial Growth (Sclerotinia homoeocarpa [1]; Table 21B, light, rate 10 μM): 4.78 mm
